Measurements from US10202361B2, “Pyridazinones as herbicides” (E I DU PONT DE NEMOURS AND COMPANY, priority 2014, dated 2019).
Where two headings read alike, the source gives them in different places.

Tests used:
Format in all cases: in vivo
[1] = system: goosegrass (Eleusine indica); assay: Test E pre-/postemergence greenhouse herbicide test; details: Preemergence, scale 0 to 100
[2] = system: barnyardgrass (Echinochloa crus-galli); assay: Test A pre-/postemergence greenhouse herbicide test; details: Echinochloa crus-galli, 240 h, 0 to 100 scale (0 no effect, 100 complete control), approx. 10 d, read-out: Plant response rating, Barnyardgrass; for pest or weed control at 125 g/ha: 125 g ai/ha; for pest or weed control at 500 g/ha: 500 g ai/ha
Procedure, shortened: (§1)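 Injury was scored visually on a 0–100 scale (100 = complete control) about 10 d after spraying, relative to untreated plants. Compounds were formulated in solvent plus surfactant and applied as soil spray preemergence or to 2–10 cm, one- to two-leaf seedlings postemergence.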

[3] = system: velvetleaf (Abutilon theophrasti); assay: as above; details: Abutilon theophrasti, 240 h, 0 to 100 scale (0 no effect, 100 complete control), approx. 10 d, read-out: Plant response rating, Velvetleaf; for pest or weed control at 125 g/ha: 125 g ai/ha; for pest or weed control at 500 g/ha: 500 g ai/ha
Procedure, shortened: as §1

[4] = system: morningglory (Ipomoea spp.); assay: as above; details: Ipomoea, 240 h, 0 to 100 scale (0 no effect, 100 complete control), approx. 10 d, read-out: Plant response rating, Morningglory; for pest or weed control at 125 g/ha: 125 g ai/ha; for pest or weed control at 500 g/ha: 500 g ai/ha
Procedure, shortened: as §1

[5] = system: foxtail, giant (giant foxtail, Setaria faberii); assay: as above; details: Setaria faberi, 240 h, 0 to 100 scale (0 no effect, 100 complete control), approx. 10 d, read-out: Plant response rating, Foxtail, Giant; for pest or weed control at 125 g/ha: 125 g ai/ha; for pest or weed control at 500 g/ha: 500 g ai/ha
Procedure, shortened: as §1

[6] = system: corn (Zea mays); assay: as above; details: Zea mays, 240 h, 0 to 100 scale (0 no effect, 100 complete control), approx. 10 d; for Corn plant response rating (crop injury, 0 = no effect, 100 = complete kill) at 125 g/ha: 125 g ai/ha; for Corn plant response rating (crop injury, 0 = no effect, 100 = complete kill) at 500 g/ha: 500 g ai/ha
Procedure, shortened: as §1

[7] = system: barnyardgrass (Echinochloa crus-galli); assay: Test B flooded paddy test; details: Echinochloa crus-galli, 312 h; Flood, 125 g ai/ha; scale of 0 to 100, 0 is no effect, 100 is complete control; 13 to 15 d; read-out: Plant response rating, Barnyardgrass
Procedure, shortened: (§2)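 Visual ratings, 0 meaning no effect and 100 complete control, were made relative to untreated controls 13–15 d after treatment in a greenhouse. Treatment was by addition to paddy water 3 cm above the soil, maintained for the test, on 2-leaf-stage plants.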

[8] = system: sedge, umbrella (small-flower umbrella sedge, Cyperus difformis); assay: Test B flooded paddy test; details: Cyperus difformis, 312 h; Flood, 125 g ai/ha; scale of 0 to 100, 0 is no effect, 100 is complete control; 13 to 15 d; read-out: Plant response rating, Sedge, Umbrella
Procedure, shortened: as §2

[9] = system: ducksalad (Heteranthera limosa); assay: Test B flooded paddy test; details: Heteranthera limosa, 312 h; Flood, 125 g ai/ha; scale of 0 to 100, 0 is no effect, 100 is complete control; 13 to 15 d; read-out: Plant response rating, Ducksalad
Procedure, shortened: as §2

[10] = system: rice (Oryza sativa); assay: Test B flooded paddy test; details: Oryza sativa, 312 h; Flood, 125 g ai/ha; scale of 0 to 100, 0 is no effect, 100 is complete control; 13 to 15 d; read-out: Plant response rating, Rice
Procedure, shortened: as §2

## CCOc1cc(=O)n(-c2ccc(F)cc2)nc1Cc1ccnc(C(F)(F)F)c1 [Compound 25, 5-ethoxy-2-(4-fluorophenyl)-6-[[2-(trifluoromethyl)-4-pyridinyl]methyl]-3 (2H)-pyridazinone]
[1]; 8 g ai/ha
  Plant response rating: Goosegrass: 5
[1]; 16 g ai/ha
  Plant response rating: Goosegrass: 5
[1]; 31 g ai/ha
  Plant response rating: Goosegrass: 15
[1]; 62 g ai/ha
  Plant response rating: Goosegrass: 75
[1]; 125 g ai/ha
  Plant response rating: Goosegrass: 98
[2]; post-emergence, Postemergence
  pest or weed control at 125 g/ha: 80%
  pest or weed control at 500 g/ha: 90%
[2]; pre-emergence, Preemergence
  pest or weed control at 125 g/ha: 90%
  pest or weed control at 500 g/ha: 100%
[3]; post-emergence, Postemergence
  pest or weed control at 125 g/ha: 60%
  pest or weed control at 500 g/ha: 100%
[3]; pre-emergence, Preemergence
  pest or weed control at 125 g/ha: 40%
  pest or weed control at 500 g/ha: 100%
[4]; post-emergence, Postemergence
  pest or weed control at 125 g/ha: 40%
  pest or weed control at 500 g/ha: 90%
[4]; pre-emergence, Preemergence
  pest or weed control at 125 g/ha: 30%
  pest or weed control at 500 g/ha: 90%
[5]; post-emergence, Postemergence
  pest or weed control at 125 g/ha: 70%
  pest or weed control at 500 g/ha: 90%
[5]; pre-emergence, Preemergence
  pest or weed control at 125 g/ha: 100%
  pest or weed control at 500 g/ha: 100%
[6]; post-emergence, Postemergence
  Corn plant response rating (crop injury, 0 = no effect, 100 = complete kill) at 125 g/ha: 70%
  Corn plant response rating (crop injury, 0 = no effect, 100 = complete kill) at 500 g/ha: 80%
[6]; pre-emergence, Preemergence
  Corn plant response rating (crop injury, 0 = no effect, 100 = complete kill) at 125 g/ha: 50%
  Corn plant response rating (crop injury, 0 = no effect, 100 = complete kill) at 500 g/ha: 50%
[7]
  pest or weed control at 125 g/ha: 0%
[8]
  pest or weed control at 125 g/ha: 75%
[9]
  pest or weed control at 125 g/ha: 0%
[10]
  plant injury at 125 g/ha: 0%
